Tests used:
[1] = test system: JB6 P+ mouse epidermal skin cells; assay: MTS assay for cytotoxicity; assay type: cell-based; settings: 24 or 48 h, concentrations less than 10 μM
Protocol: (§1) Cells (1×10^4 cells/well) were seeded into 96-well plates. After an overnight incubation, cells were treated with different concentrations of compound 1 and incubated for 24 or 48 h. Then 20 μL of the CellTiter 96 Aqueous One Solution (Promega, Madison, Wis.) were added to each well and cells were incubated for an additional 1 h at 37° C. Absorbance was measured at an optical density of 492 and 690 nm using the Thermo Multiskan plate-reader (Thermo Fisher Scientific, Waltham, Mass.).
as §1, with “plates for determining cytotoxicity.” for “plates.”, “(Promega Corporation,” for “(Promega,”

[2] = test system: normal human dermal fibroblasts (NHDF); assay: MTS assay for cytotoxicity; assay type: cell-based; settings: 24 or 48 h, concentrations less than 10 μM
Protocol: as §1
as §1, with “plates for determining cytotoxicity.” for “plates.”, “(Promega Corporation,” for “(Promega,”

A431 cells = assay: Western blot of TOPK downstream signaling; assay type: cell-based, human
Protocol: (§2) The cells were cultured, treated for 4 h with different concentrations of compound 1 and then exposed to SUV (60 kJ UVA/m^2 and 2.9 kJ UVB/m^2), followed by an additional 15-minute incubation. Cells were harvested and the levels of phosphorylated and total proteins were determined by Western blot analysis with specific antibodies as indicated. […] The cells were cultured and treated with different concentrations of compound 1 for 24 h. Cells were harvested and the levels of phosphorylated and total proteins were determined by Western blot analysis with specific antibodies as indicated. […] For the luciferase assay, JB6 P+ cells stably transfected with an AP-1 luciferase reporter plasmid were cultured. After starvation for 24 h, cells were treated for 1 h with compound 1 (0, 1.25, 2.5, or 5 μM). Cells were then exposed to SUV (60 kJ UVA/m^2 and 2.9 kJ UVB/m^2) and harvested 3 h later. Luciferase activity was measured and AP-1 activity is expressed relative to control cells without SUV treatment. […] Knockdown of TOPK in A431 cell line (left). Stable control or TOPK knockdown cells were co-transfected with 100 ng of the AP-1 luciferase reporter plasmid and 50 ng of internal control […] plasmid. Cells were transfected using iMFectin poly DNA transfection reagent (GenDEPOT) according to the manufacturer's instructions. After 12 h of transfection, cells were incubated with the different concentrations of compound 1 for another 24 h. Luciferase and […] activities were measured using reagents included in the reporter assay system (right). Data are shown as mean values±S.D obtained from triplicate experiments. Significant differences were evaluated using one-way ANOVA and the asterisks (*) indicate a significant effect (*, p<0.05; **, p<0.001; ***, p<0.0001).
(§3) HaCaT or JB6 P+ cells (1×10^6) were cultured in 10-cm dishes for 24 h and then the medium was replaced with 0.1% FBS medium for 24 h. Cells were then treated with different concentrations of compound 1 for 4 h followed by exposure to SUV (60 kJ UVA/m^2 and 2.9 kJ UVB/m^2). After SUV, cells were incubated for 15 min at 37° C. in a 5% CO2 humidified incubator. SCC12 and A431 cells (1.5×10^6) were cultured in 10-cm dishes overnight and then starved for 24 h. Cells were then treated with different concentrations of compound 1 for an additional 24 h. Protein concentration in cell lysates was determined using a protein assay kit (Bio-Rad Laboratories, Hercules, Calif.). Equal amounts of proteins were resolved by SDS-PAGE and then transferred onto polyvinylidene difluoride (PVDF) membranes (EMD Millipore Corp., Billerica, Mass.) and membranes were blocked with 5% nonfat milk for 1 h at room temperature. […]

SCC12 cells = assay: Western blot of TOPK downstream signaling; assay type: cell-based, human
Protocol: as §2, §3

O=C1Nc2ccc(C34CC5CC(CC(C5)C3)C4)cc2C1=NO [compound 1, 5-(adamantan-1-yl)-3-(hydroxyimino)indolin-2-one]
cytotoxicity [1]: no cytotoxicity | cytotoxicity [2]: no cytotoxicity | phosphorylated c-Jun protein levels (A431 cells): blocked dose-dependently | phosphorylation of ERK1/2, p38, and JNKs (A431 cells; 24 h, dose-dependently): blocked | phosphorylated c-Jun protein levels (SCC12 cells): blocked dose-dependently | phosphorylation of ERK1/2, p38, and JNKs (SCC12 cells; 24 h, dose-dependently): blocked

Reference: patent US10487054B2, “Therapeutic compounds” (REGENTS OF THE UNIVERSITY OF MINNESOTA, priority 2017, dated 2019)
